# Structures can show the parent of a compound that is named as a salt.
# How the values were obtained:
# [1] = Particle size determination by laser diffraction (MALVERN Mastersizer 2000); assay type: physicochemical; conditions: for <150 μm (fraction of particles by volume smaller than specified diameter) / Mean particle size / <63 μm (fraction of particles by volume smaller than specified diameter): hydrochloride dihydrate
# Experimental: Particle Size Determination by Laser Diffraction
# The particle size of the obtained ondansetron hydrochloride dihydrate particles was determined as set forth above (See Methodology and Protocols). The mean particle size and particle size distribution of the particles (fraction of particles by volume smaller than specified diameter) are presented in the following table.
# [2] = particles from the '578 patent process (cooling isopropanol/water solution); cited from earlier work
# [3] = Drying: 40° C., eight (8) hours, 25° C., two (2) days
# [4] = Drying: Ambient conditions, six (6) hours
# [5] = Drying: None (i.e., wet particles after filtration)
SMILES,<250 μm (fraction of particles by volume smaller than specified diameter) ([1]; dried particles) [%],<150 μm (fraction of particles by volume smaller than specified diameter) ([1]; dried particles) [%],Mean particle size ([1]; dried particles) [μm],<63 μm (fraction of particles by volume smaller than specified diameter) ([1]; dried particles) [%],also measured
"Cc1nccn1CC1CCc2c(c3ccccc3n2C)C1=O (single isomer, unassigned) [Example 1, ondansetron hydrochloride dihydrate]",100,90,96,,<60 μm (fraction of particles by volume smaller than specified diameter) ([1]; dried particles): 19%
"Cc1nccn1CC1CCc2c(c3ccccc3n2C)C1=O (single isomer, unassigned) [Example 2, ondansetron hydrochloride dihydrate]",100,90,81,31,
"Cc1nccn1CC1CCc2c(c3ccccc3n2C)C1=O (single isomer, unassigned) [Example 3, ondansetron hydrochloride dihydrate]",100,85,81,34,
"Cc1nccn1CC1CCc2c(c3ccccc3n2C)C1=O (single isomer, unassigned) [Example 4, ondansetron hydrochloride dihydrate]",100,85,81,12,
"Cc1nccn1CC1CCc2c(c3ccccc3n2C)C1=O (single isomer, unassigned) [Example 5, ondansetron hydrochloride dihydrate]",100,85,89,26,
"Cc1nccn1CC1CCc2c(c3ccccc3n2C)C1=O (stereo not shown) [Example 6, ondansetron hydrochloride dihydrate]",,,,,"<60 μm [1, 3]: 15%; <350 μm [1, 3]: 100%; <60 μm ([1]; Drying: 40° C., four (4) hours): 28%; <280 μm ([1]; Drying: 40° C., four (4) hours): 100%; <60 μm ([1]; Drying: 40° C., two (2) hours): 35%; <290 μm ([1]; Drying: 40° C., two (2) hours): 100%; <60 μm [1, 4]: 28%; <280 μm [1, 4]: 100%; <60 μm [1, 5]: 31%; <280 μm [1, 5]: 100%"
Cc1nccn1CC1CCc2c(c3ccccc3n2C)C1=O (stereo not shown) [ondansetron hydrochloride dihydrate],,,,,Fraction of particles smaller than 250 μm [2]: less than 60%

# — patent US7288660B2, “Process for preparing ondansetron hydrochloride dihydrate having a defined particle size” (Taro Pharmaceutical Industries Limited, priority 2004, dated 2007)
